Source: article PMC12355328 (ACS Omega, 2025)
In brackets after ≈: the same amount, converted by molar mass. Residues, ends and D or L forms follow the SMILES beside them.

Assays:
[1] = Dye-leakage assay, POPE/POPG; details: 100 μM POPE/POPG LUV; 298 K
[2] = Dye-leakage assay, POPG/TOCL; details: 100 μM POPG/TOCL LUV; 298 K
[3] = Circular dichroism spectroscopy; type: physicochemical; details: 50 μM, 100 mM NaF, 10 mM KH2PO4, pH 7.5; averaged of three repeats, 298 K
E. coli ATCC25922 = experiment: MIC assay, ciprofloxacin-sensitive E. coli; type: cell-based, Escherichia coli; details: MHB, 6 h, OD600, concentration at which growth surpassed 10%
DnaK = DnaK (Escherichia coli, UniProt P0A6Y8); experiment: DnaK binding assay
Sequence of DnaK (P0A6Y8 whole entry): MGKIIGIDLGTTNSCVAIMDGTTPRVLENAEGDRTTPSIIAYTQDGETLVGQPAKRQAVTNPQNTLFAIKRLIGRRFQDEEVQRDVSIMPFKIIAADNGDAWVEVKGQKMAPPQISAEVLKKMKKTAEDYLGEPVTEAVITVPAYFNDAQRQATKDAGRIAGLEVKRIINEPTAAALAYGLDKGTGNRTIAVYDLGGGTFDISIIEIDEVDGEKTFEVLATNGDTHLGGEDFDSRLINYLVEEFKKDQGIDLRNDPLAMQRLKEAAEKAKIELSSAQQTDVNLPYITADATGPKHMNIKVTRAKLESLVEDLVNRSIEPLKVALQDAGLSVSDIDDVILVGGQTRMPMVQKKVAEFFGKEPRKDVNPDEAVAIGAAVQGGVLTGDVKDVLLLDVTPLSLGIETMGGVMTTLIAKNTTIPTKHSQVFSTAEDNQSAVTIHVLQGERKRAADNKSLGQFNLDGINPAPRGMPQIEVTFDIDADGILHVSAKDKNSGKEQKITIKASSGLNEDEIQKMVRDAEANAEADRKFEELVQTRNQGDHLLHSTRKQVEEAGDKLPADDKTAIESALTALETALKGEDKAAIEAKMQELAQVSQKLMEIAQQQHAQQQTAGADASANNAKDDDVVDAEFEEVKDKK

DNA gyrase = DNA gyrase (Escherichia coli, UniProt P0AES4+P0AES6); experiment: DNA gyrase inhibition; type: biochemical
Sequence of DNA gyrase (P0AES4 whole entry, one chain of several): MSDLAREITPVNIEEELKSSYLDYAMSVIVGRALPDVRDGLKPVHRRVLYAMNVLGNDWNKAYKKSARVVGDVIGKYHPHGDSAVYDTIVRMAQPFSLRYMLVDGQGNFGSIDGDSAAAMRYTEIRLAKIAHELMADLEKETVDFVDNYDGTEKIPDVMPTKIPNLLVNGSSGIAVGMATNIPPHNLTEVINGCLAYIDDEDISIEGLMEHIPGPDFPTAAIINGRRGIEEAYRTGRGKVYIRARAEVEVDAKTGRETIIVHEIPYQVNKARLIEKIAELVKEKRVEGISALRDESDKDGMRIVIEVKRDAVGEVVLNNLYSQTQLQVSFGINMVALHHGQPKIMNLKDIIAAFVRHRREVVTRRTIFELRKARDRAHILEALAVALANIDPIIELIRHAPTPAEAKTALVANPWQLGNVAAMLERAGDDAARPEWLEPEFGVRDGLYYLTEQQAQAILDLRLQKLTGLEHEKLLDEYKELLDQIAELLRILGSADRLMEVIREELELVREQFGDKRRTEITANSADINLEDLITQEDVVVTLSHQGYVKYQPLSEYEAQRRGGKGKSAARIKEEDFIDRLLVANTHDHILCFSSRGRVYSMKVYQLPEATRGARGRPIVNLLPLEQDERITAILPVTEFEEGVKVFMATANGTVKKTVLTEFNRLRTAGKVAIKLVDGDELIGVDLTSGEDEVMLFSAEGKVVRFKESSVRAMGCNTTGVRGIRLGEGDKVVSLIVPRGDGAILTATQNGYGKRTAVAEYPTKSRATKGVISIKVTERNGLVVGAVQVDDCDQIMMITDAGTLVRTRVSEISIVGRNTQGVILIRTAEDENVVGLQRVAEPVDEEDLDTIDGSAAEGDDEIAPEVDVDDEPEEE

E. coli BAA 3051 = experiment: MIC assay, ciprofloxacin-resistant E. coli; type: cell-based, Escherichia coli; details: E. coli BAA 3051 (ciprofloxacin-resistant); MHB, 6 h, OD600; concentration at which growth surpassed 10%

SMILES | leakage profile (in words) [1] | leakage profile (in words) [2] | CD: conformation / aggregation in buffer (in words) [3] | MIC (E. coli ATCC25922) [µM] | IC50 (DnaK) [nM] | Ki (DnaK) [nM] | IC50 (DNA gyrase) [nM] | MIC (E. coli BAA 3051) [µM]
O=C(O)c1cn(C2CC2)c2cc(N3CCNCC3)c(F)cc2c1=O [ciprofloxacin] | showed a similar trend to POPC | showed a similar trend as in POPC | not optically active in CD |  |  |  |  | 
CC[C@H](C)[C@H](NC(=O)[C@H](CCCNC(=N)N)NC(=O)[C@H](CCCNC(=N)N)NC(=O)[C@@H]1CCCN1C(=O)[C@@H]1CCCN1C(=O)[C@H](CCCNC(=N)N)NC(=O)[C@@H]1CCCN1C(=O)[C@H](CCCNC(=N)N)NC(=O)[C@@H]1CCCN1C(=O)[C@H](CC(C)C)NC(=O)[C@H](Cc1ccc(O)cc1)NC(=O)[C@@H]1CCCN1C(=O)[C@@H]1CCCN1C(=O)[C@H](CCCCN)NC(=O)[C@H](CC(=O)O)NC(=O)[C@@H](N)C(C)C)C(=O)N[C@@H](Cc1ccc(O)cc1)C(=O)N[C@@H](CC(N)=O)C(=O)N[C@@H](CCCNC(=N)N)C(N)=O [oncocin] (H-VDKPPYLPRPRPPRRIYNR-NH2) |  |  |  | 1 (≈ 2.39 µg/mL) | 1540 | 390 | > 10000 | 1 (≈ 2.39 µg/mL)
